Reference: patent publication US20260266798A1, “SYSTEMS AND METHODS REGARDING PEAK EXPLORATION AND ARTIFICIAL TISSUE RESPONSE INCLUDING FOR CONTRACTION TYPE CLASSIFICATION OF ENGINEERED TISSUE” (VALO HEALTH, INC., priority 2023, published 2026)

System: artificial tissue
Assay: Contraction type classification (single/double) of contractile force waveforms of artificial tissue under baseline and perturbed conditions (FIG. 27)
Type: cell-based
Conditions: functional response = contractile force; first and second (increasing) dose of isoproterenol vs reference/control conditions; shown most clearly at the second dose
Text: The waveforms comprise functional responses (contractile force) of an artificial tissue under baseline conditions and two perturbed conditions. Examples of perturbed conditions are treatment of a tissue with a drug or compound, different cell lines, different disease states, physical perturbation of the artificial tissue, changes made to the platform or bioreactor containing the artificial tissue, and the like. The baseline waveform 2702, the first perturbed waveform 2704, and the second perturbed waveform 2706 are associated with a baseline classification vector 2708, a first perturbed classification vector 2710, and a second perturbed classification vector 2712 respectively. […]
The classification vectors (e.g., the baseline classification vector 2708) are obtained by extracting a plurality of functional response waveforms from each waveform (as described in more detail below in relation to FIG. 33) and then determining a contraction type for each functional response waveform using a prediction model (e.g., the prediction model 600 described above in relation to FIGS. 6 and 7). […] In contrast, the third classification value 2720 is a double contraction type (as indicated by the dark gray shading) because the associated functional response waveform 2724 is determined by the prediction model to contain a double contraction. […]

Compound: CC(C)NCC(O)c1ccc(O)c(O)c1 (stereo not shown) [isoproterenol]
- contraction type classification vector of the perturbed waveforms compared to the baseline classification vector: induces regular double contractions of the artificial tissue
